Assay results reported in patent publication US20060079566A1, “PDK-1/Akt signaling inhibitors” (priority 2003, published 2006).

Legend:
immunoprecipitated Akt = assay: Direct inhibition of immunoprecipitated Akt kinase activity; assay type: biochemical, human
DU-145 = assay: NCI DTP screen (SRB), Prostate Cancer; assay type: cell-based; conditions: Homo sapiens
Protocol: (§1) Screening of compounds 70 and 71 against several cancer cell lines The human tumor cell lines of the cancer screening panel are grown in RPMI 1640 medium containing 5% fetal bovine serum and 2 mM L-glutamine. For a typical screening experiment, cells are inoculated into 96 well microtiter plates in 100 μL at plating densities ranging from 5,000 to 40,000 cells/well depending on the doubling time of individual cell lines. After cell inoculation, the microtiter plates are incubated at 37° C., 5% CO2, 95% air and 100% relative humidity for 24 h prior to addition of experimental drugs.
(§2) After 24 h, two plates of each cell line are fixed in situ with TCA, to represent a measurement of the cell population for each cell line at the time of drug addition (Tz). Experimental drugs are solubilized in dimethyl sulfoxide at 400-fold the desired final maximum test concentration and stored frozen prior to use. At the time of drug addition, an aliquot of frozen concentrate is thawed and diluted to twice the desired final maximum test concentration with complete medium containing 50 μg/ml gentamicin. Additional four, 10-fold or ½ log serial dilutions are made to provide a total of five drug concentrations plus control. Aliquots of 100 μl of these different drug dilutions are added to the appropriate microtiter wells already containing 100 μl of medium, resulting in the required final drug concentrations.
(§3) Following drug addition, the plates are incubated for an additional 48 h at 37° C., 5% CO2, 95% air, and 100% relative humidity. For adherent cells, the assay is terminated by the addition of cold TCA. Cells are fixed in situ by the gentle addition of 50 μl of cold 50% (w/v) TCA (final concentration, 10% TCA) and incubated for 60 minutes at 4° C. […] Bound stain is subsequently solubilized with 10 mM trizma base, and the absorbance is read on an automated plate reader at a wavelength of 515 nm. […] Using the seven absorbance measurements [time zero, (Tz), control growth, (C), and test growth in the presence of drug at the five concentration levels (Ti)], the percentage growth is calculated at each of the drug concentrations levels. Percentage growth inhibition is calculated as: [(Ti−Tz)/(C−Tz)]×100 for concentrations for which Ti>/=Tz [(Ti−Tz)/Tz]×100 for concentrations for which Ti<Tz
(§4) Three dose response parameters are calculated for each experimental agent. […] The drug concentration resulting in total growth inhibition (TGI) is calculated from Ti=Tz. […] Values are calculated for each of these three parameters if the level of activity is reached; however, if the effect is not reached or is exceeded, the value for that parameter is expressed as greater or less than the maximum or minimum concentration tested.

PC-3 = assay: NCI DTP screen (SRB), Prostate Cancer; assay type: cell-based; conditions: Homo sapiens
Protocol: as §1, §2, §3, §4

HCT-15 = assay: NCI DTP screen (SRB), Colon Cancer; assay type: cell-based; conditions: Homo sapiens
Protocol: (§6) After 24 h, two plates of each cell line are fixed in situ with TCA, to represent a measurement of the cell population for each cell line at the time of drug addition (Tz). Experimental drugs are solubilized in dimethyl sulfoxide at 400-fold the desired final maximum test concentration and stored frozen prior to use. […]
(§7) Following drug addition, the plates are incubated for an additional 48 h at 37° C., 5% CO2, 95% air, and 100% relative humidity. […] Bound stain is subsequently solubilized with 10 mM trizma base, and the absorbance is read on an automated plate reader at a wavelength of 515 nm. […] Using the seven absorbance measurements [time zero, (Tz), control growth, (C), and test growth in the presence of drug at the five concentration levels (Ti)], the percentage growth is calculated at each of the drug concentrations levels. Percentage growth inhibition is calculated as: [(Ti−Tz)/(C−Tz)]×100 for concentrations for which Ti>/=Tz [(Ti−Tz)/Tz]×100 for concentrations for which Ti<Tz […]

MDA-MB-435 = assay: NCI DTP screen (SRB), Breast Cancer; assay type: cell-based; conditions: Homo sapiens
Protocol: as §1, §2
(§5) Following drug addition, the plates are incubated for an additional 48 h at 37° C., 5% CO2, 95% air, and 100% relative humidity. For adherent cells, the assay is terminated by the addition of cold TCA. Cells are fixed in situ by the gentle addition of 50 μl of cold 50% (w/v) TCA (final concentration, 10% TCA) and incubated for 60 minutes at 4° C. The supernatant is discarded, and the plates are washed five times with tap water and air dried. Sulforhodamine B (SRB) solution (100 μl) at 0.4% (w/v) in 1% acetic acid is added to each well, and plates are incubated for 10 minutes at room temperature. After staining, unbound dye is removed by washing five times with 1% acetic acid and the plates are air dried. Bound stain is subsequently solubilized with 10 mM trizma base, and the absorbance is read on an automated plate reader at a wavelength of 515 nm. For suspension cells, the methodology is the same except that the assay is terminated by fixing settled cells at the bottom of the wells by gently adding 50 μl of 80% TCA (final concentration, 16% TCA). Using the seven absorbance measurements [time zero, (Tz), control growth, (C), and test growth in the presence of drug at the five concentration levels (Ti)], the percentage growth is calculated at each of the drug concentrations levels. Percentage growth inhibition is calculated as: [(Ti−Tz)/(C−Tz)]×100 for concentrations for which Ti>/=Tz [(Ti−Tz)/Tz]×100 for concentrations for which Ti<Tz
as §4

HS 57BT = assay: NCI DTP screen (SRB), Breast Cancer; assay type: cell-based
Protocol: as §1, §2, §5, §4

MDA-MB-231/ATCC = assay: NCI DTP screen (SRB), Breast Cancer; assay type: cell-based
Protocol: as §1, §2, §5, §4

T-47D = assay: NCI DTP screen (SRB), Breast Cancer; assay type: cell-based
Protocol: as §1, §2, §5, §4

NCI/ADR-RES = assay: NCI DTP screen (SRB), Breast Cancer; assay type: cell-based; conditions: Homo sapiens
Protocol: as §1, §2, §5, §4

HOP-62 = assay: NCI DTP screen (SRB), Non-Small Cell Lung Cancer; assay type: cell-based; conditions: Homo sapiens
Protocol: as §1, §2, §5, §4

EKVX = assay: NCI DTP screen (SRB), Non-Small Cell Lung Cancer; assay type: cell-based; conditions: Homo sapiens
Protocol: as §1, §2, §5, §4

NCI-H322M = assay: NCI DTP screen (SRB), Non-Small Cell Lung Cancer; assay type: cell-based; conditions: NCI-H322M
Protocol: as §1, §2, §5, §4

A549/ATCC = assay: NCI DTP screen (SRB), Non-Small Cell Lung Cancer; assay type: cell-based; conditions: Homo sapiens
Protocol: as §1, §2, §5, §4

NCI-H226 = assay: NCI DTP screen (SRB), Non-Small Cell Lung Cancer; assay type: cell-based; conditions: Homo sapiens
Protocol: as §1, §2, §5, §4

NCI-H23 = assay: NCI DTP screen (SRB), Non-Small Cell Lung Cancer; assay type: cell-based; conditions: Homo sapiens
Protocol: as §1, §2, §5, §4

BT-549 = assay: NCI DTP screen (SRB), Breast Cancer; assay type: cell-based; conditions: Homo sapiens
Protocol: as §6, §7

ACHN = assay: NCI DTP screen (SRB), Renal Cancer; assay type: cell-based; conditions: Homo sapiens
Protocol: as §1, §2, §5, §4

TK-10 = assay: NCI DTP screen (SRB), Renal Cancer; assay type: cell-based; conditions: Homo sapiens
Protocol: as §1, §2, §5, §4

SN12C = assay: NCI DTP screen (SRB), Renal Cancer; assay type: cell-based; conditions: Homo sapiens
Protocol: as §1, §2, §5, §4

CAKI-1 = assay: NCI DTP screen (SRB), Renal Cancer; assay type: cell-based; conditions: Homo sapiens
Protocol: as §1, §2, §5, §4

786-0 = assay: NCI DTP screen (SRB), Renal Cancer; assay type: cell-based; conditions: Homo sapiens
Protocol: as §1, §2, §5, §4

A498 = assay: NCI DTP screen (SRB), Renal Cancer; assay type: cell-based; conditions: Homo sapiens
Protocol: as §1, §2, §5, §4

MALNE-3M = assay: NCI DTP screen (SRB), Melanoma; assay type: cell-based
[1] = MALNE-3M, Log10 Concentration −5.0

NCC(=O)Nc1ccc(-n2nc(C(F)(F)F)cc2-c2ccc3c(ccc4ccccc43)c2)cc1 [Compound 70, 2-Amino-N-{4-[5-(2-phenanthrenyl)-3-(trifluoromethyl)-1H-pyrazol-1-yl]-phenyl}-acetamide]
direct inhibitory effect on immunoprecipitated Akt kinase activity (immunoprecipitated Akt): no appreciable direct inhibition | GI50 (DU-145; DU-145): 1730 nM | CC50 (DU-145; DU-145, read-out: LC50): 6950 nM | GI50 (PC-3; PC-3): 705 nM | CC50 (PC-3; PC-3, read-out: LC50): 6020 nM | GI50 (HCT-15; HCT-15): 365 nM | CC50 (HCT-15; HCT-15, read-out: LC50): > 100000 nM | GI50 (MDA-MB-435): 1350 nM | Percent Growth (HS 57BT; HS 57BT, Log10 Concentration −5.0): −34% | Percent Growth (HS 57BT; HS 57BT, Log10 Concentration −6.0): 88% | CC50 (HS 57BT; Homo sapiens, read-out: LC50): > 100000 nM | GI50 (HS 57BT; Homo sapiens, HS 57BT): 2050 nM | CC50 (MDA-MB-231/ATCC; Homo sapiens, MDA-MB-231, read-out: LC50): 6670 nM | GI50 (MDA-MB-231/ATCC; Homo sapiens, MDA-MB-231/ATCC): 1150 nM | Mean Optical Densities (MDA-MB-231/ATCC; MDA-MB-231/ATCC, Log10 Concentration −8.0): 1.988 | GI50 (T-47D; Homo sapiens, T47D): 1820 nM | Percent Growth (T-47D; Log10 Concentration −4.0): −64% | GI50 (NCI/ADR-RES): 954 nM | CC50 (NCI/ADR-RES; read-out: LC50): 8280 nM | GI50 (HOP-62; HOP-62): 1270 nM | CC50 (HOP-62; HOP-62, read-out: LC50): 7130 nM | GI50 (EKVX): 1490 nM | CC50 (NCI-H322M; Homo sapiens, read-out: LC50): 5400 nM | Mean Optical Densities (NCI-H322M; Log10 Concentration −5.0): 1.100 | Percent Growth (NCI-H322M; Log10 Concentration −8.0): 60% | GI50 (A549/ATCC): 1020 nM | GI50 (NCI-H226): 1200 nM | GI50 (NCI-H23; NCI-H23): 1300 nM | CC50 (NCI-H23; NCI-H23, read-out: LC50): 6330 nM | GI50 (BT-549; BT-549): 1250 nM | CC50 (BT-549; BT-549, read-out: LC50): 6980 nM | GI50 (ACHN): 1420 nM | GI50 (TK-10; TK-10): 1480 nM | CC50 (TK-10; TK-10, read-out: LC50): 6470 nM | GI50 (SN12C): 1580 nM | GI50 (CAKI-1): 703 nM | GI50 (786-0; 786-0): 1200 nM | CC50 (786-0; 786-0, read-out: LC50): 6790 nM | GI50 (A498; A498): 2300 nM | CC50 (A498; A498, read-out: LC50): 66900 nM | CC50 (MALNE-3M; Homo sapiens, read-out: LC50): 7730 nM | Mean Optical Densities (MALNE-3M; [1]): 0.218 | Percent Growth (MALNE-3M; [1]): −67% | Percent Growth (MALNE-3M; MALNE-3M, Log10 Concentration −6.0): 87%
